Test results reported in ChEMBL document CHEMBL4359931, “Synthesis, biological evaluation and molecular docking studies of new amides of 4-bromothiocolchicine as anticancer agents” (Bioorg Med Chem, 2019).
Active and inactive are the calls of the source. No cut-off for these calls is given here.

Columns and labels:
[1] = Antiproliferative activity against human ALL5 cells assessed as reduction in cell viability incubated for 120 hrs by MTT assay; type: functional, cell-based; conditions: ALL5, 120 h
[2] = Cell cycle arrest in human ALL5 cells assessed as accumulation in G2 phase at 5 times of antiproliferative IC50 incubated for 24 hrs by propidium iodide based flow cytometry (reference value: 10.6 %); type: functional
[3] = Cell cycle arrest in human ALL5 cells assessed as accumulation in G2 phase at 5 times of antiproliferative IC50 incubated for 48 hrs by propidium iodide based flow cytometry (reference value: 11.2 %); type: functional
[4] = Cell cycle arrest in human ALL5 cells assessed as accumulation in G2 phase at 5 times of antiproliferative IC50 incubated for 72 hrs by propidium iodide based flow cytometry (reference value: 11.3 %); type: functional
[5] = Cell cycle arrest in human ALL5 cells assessed as accumulation in G1 phase at 5 times of antiproliferative IC50 incubated for 24 hrs by propidium iodide based flow cytometry (reference value: 68.1 %); type: functional
[6] = Cell cycle arrest in human ALL5 cells assessed as accumulation in G1 phase at 5 times of antiproliferative IC50 incubated for 48 hrs by propidium iodide based flow cytometry (reference value: 67.4 %); type: functional
[7] = Cell cycle arrest in human ALL5 cells assessed as accumulation in G1 phase at 5 times of antiproliferative IC50 incubated for 72 hrs by propidium iodide based flow cytometry (reference value: 59.7 %); type: functional
[8] = Cell cycle arrest in human ALL5 cells assessed as accumulation in subG1 phase at 5 times of antiproliferative IC50 incubated for 24 hrs by propidium iodide based flow cytometry (reference value: 10.5 %); type: functional
[9] = Cell cycle arrest in human ALL5 cells assessed as accumulation in subG1 phase at 5 times of antiproliferative IC50 incubated for 48 hrs by propidium iodide based flow cytometry (reference value: 11 %); type: functional
[10] = Cell cycle arrest in human ALL5 cells assessed as accumulation in subG1 phase at 5 times of antiproliferative IC50 incubated for 72 hrs by propidium iodide based flow cytometry (reference value: 15.5 %); type: functional
MCF7 [11] = test: Cell cycle arrest in human MCF7 cells assessed as accumulation in G2 phase at 5 times of antiproliferative IC50 incubated for 24 hrs by propidium iodide based flow cytometry (reference value: 22.4 %); type: functional
MCF7 [12] = test: Cell cycle arrest in human MCF7 cells assessed as accumulation in G2 phase at 5 times of antiproliferative IC50 incubated for 48 hrs by propidium iodide based flow cytometry (reference value: 16 %); type: functional
MCF7 [13] = test: Cell cycle arrest in human MCF7 cells assessed as accumulation in G2 phase at 5 times of antiproliferative IC50 incubated for 72 hrs by propidium iodide based flow cytometry (reference value: 18.6 %); type: functional
MCF7 [14] = test: Cell cycle arrest in human MCF7 cells assessed as accumulation in G1 phase at 5 times of antiproliferative IC50 incubated for 24 hrs by propidium iodide based flow cytometry (reference value: 49.9 %); type: functional
MCF7 [15] = test: Cell cycle arrest in human MCF7 cells assessed as accumulation in G1 phase at 5 times of antiproliferative IC50 incubated for 48 hrs by propidium iodide based flow cytometry (reference value: 40.8 %); type: functional
MCF7 [16] = test: Cell cycle arrest in human MCF7 cells assessed as accumulation in G1 phase at 5 times of antiproliferative IC50 incubated for 72 hrs by propidium iodide based flow cytometry (reference value: 58 %); type: functional
MCF7 [17] = test: Cell cycle arrest in human MCF7 cells assessed as accumulation in subG1 phase at 5 times of antiproliferative IC50 incubated for 24 hrs by propidium iodide based flow cytometry (reference value: 7.79 %); type: functional
MCF7 [18] = test: Cell cycle arrest in human MCF7 cells assessed as accumulation in subG1 phase at 5 times of antiproliferative IC50 incubated for 48 hrs by propidium iodide based flow cytometry (reference value: 9.19 %); type: functional
MCF7 [19] = test: Cell cycle arrest in human MCF7 cells assessed as accumulation in subG1 phase at 5 times of antiproliferative IC50 incubated for 72 hrs by propidium iodide based flow cytometry (reference value: 3.59 %); type: functional
MCF7 [20] = test: Cell cycle arrest in human MCF7 cells assessed as accumulation in S phase at 5 times of antiproliferative IC50 incubated for 24 hrs by propidium iodide based flow cytometry (reference value: 19.9 %); type: functional
MCF7 [21] = test: Cell cycle arrest in human MCF7 cells assessed as accumulation in S phase at 5 times of antiproliferative IC50 incubated for 48 hrs by propidium iodide based flow cytometry (reference value: 34 %); type: functional
MCF7 [22] = test: Cell cycle arrest in human MCF7 cells assessed as accumulation in S phase at 5 times of antiproliferative IC50 incubated for 72 hrs by propidium iodide based flow cytometry (reference value: 19.8 %); type: functional
[23] = Cell cycle arrest in human ALL5 cells assessed as accumulation in S phase at 5 times of antiproliferative IC50 incubated for 24 hrs by propidium iodide based flow cytometry (reference value: […]); type: functional
[24] = Cell cycle arrest in human ALL5 cells assessed as accumulation in S phase at 5 times of antiproliferative IC50 incubated for 48 hrs by propidium iodide based flow cytometry (reference value: 10.3 %); type: functional
[25] = Cell cycle arrest in human ALL5 cells assessed as accumulation in S phase at 5 times of antiproliferative IC50 incubated for 72 hrs by propidium iodide based flow cytometry (reference value: 13.5 %); type: functional
Homo sapiens [26] = organism: Homo sapiens; test: Induction of apoptosis in human ALL5 cells assessed as reduction in 116 kDa PARP expression at 43 uM incubated for 24 and 48 hrs by immunoblot analysis; type: functional, cell-based
Homo sapiens [27] = organism: Homo sapiens; test: Induction of apoptosis in human ALL5 cells assessed as increase in 85 kDa PARP expression at 43 uM incubated for 48 hrs by immunoblot analysis; type: functional, cell-based
Homo sapiens [28] = organism: Homo sapiens; test: Induction of cell cycle arrest in human ALL5 cells assessed as increase in 4 N DNA at 5 times of antiproliferative IC50 incubated for 24 hrs by propidium iodide based flow cytometry; type: functional
Homo sapiens [29] = organism: Homo sapiens; test: Induction of cell cycle arrest in human ALL5 cells assessed as increase in 4 N DNA at 5 times of antiproliferative IC50 incubated for 48 hrs by propidium iodide based flow cytometry; type: functional
Homo sapiens [30] = organism: Homo sapiens; test: Induction of cell death in human ALL5 cells assessed as decrease in 4 N DNA at 5 times of antiproliferative IC50 incubated for 72 hrs by propidium iodide based flow cytometry; type: functional

## COc1cc2c(c(OC)c1OC)-c1ccc(OC)c(=O)cc1[C@@H](NC(C)=O)CC2 [COLCHICINE]
[1]
  IC50: 8.6 nM
[2]
  Activity: 14.4%
[3]
  Activity: 22.3%
[4]
  Activity: 9.05%
[5]
  Activity: 54%
[6]
  Activity: 33.2%
[7]
  Activity: 21.7%
[8]
  Activity: 19.7%
[9]
  Activity: 27.4%
[10]
  Activity: 52.1%
MCF7 [11]
  Activity: 72.2%
MCF7 [12]
  Activity: 68.3%
MCF7 [13]
  Activity: 64%
MCF7 [14]
  Activity: 9.33%
MCF7 [15]
  Activity: 14.5%
MCF7 [16]
  Activity: 16%
MCF7 [17]
  Activity: 5.51%
MCF7 [18]
  Activity: 9.33%
MCF7 [19]
  Activity: 12.6%
MCF7 [20]
  Activity: 13%
MCF7 [21]
  Activity: 7.86%
MCF7 [22]
  Activity: 7.4%
[23]
  Activity: 12%
[24]
  Activity: 17.1%
[25]
  Activity: 17.1%
Homo sapiens [26]
  Activity: Active
Homo sapiens [27]
  Activity: Active
Homo sapiens [28]
  Activity: Active
Homo sapiens [29]
  Activity: Active
Homo sapiens [30]
  Activity: Active
